According to US20100029575A1, “N-Oxides of Kappa Receptor Peptides” (priority 2006, published 2010):
“And” between values parts separate entries of the source, which are not always exact repeats. Equal entries are not always repeated. Square brackets hold non-standard residues; d marks the D form. Peptide text beside a SMILES is read from it. * marks the point of attachment. dNle = CCCC[C@@H](N)C(=O)O; X1 = [O-][n+]1ccc(CN*)cc1

Legend:
Kappa Opioid Receptor [1] = biological target: T1, Kappa Opioid Receptor (Cavia porcellus, UniProt P41144); assay: Kappa opioid receptor binding, competitive displacement of bound radioligand (guinea pig brain membranes); conditions: for IC50: Kappa Opioid Receptor Binding IC50, guinea pig brain; for Kappa Opioid Receptor Binding Pct Max: guinea pig brain
T1 construct: from tissue; host or cells: guinea pig brain membranes
Source text: (§1) Receptor assays are well known in the art and kappa opioid receptors from several species have been cloned, as have mu and delta opioid receptors. Kappa opioid receptors as well as mu and delta opioid receptors are classical, seven-transmembrane spanning, G-protein coupled receptors. Although these cloned receptors readily allow a particular candidate compound, e.g., a peptide, to be screened, natural sources of mammalian opioid receptors are also useful for screening, as is well known in the art (Dooley C T et al. Selective ligands for the mu, delta, and kappa opioid receptors identified from a single mixture based tetrapeptide positional scanning combinatorial library. J. Biol. Chem. 273:18848-56, 1998). Thus, screening against both kappa and mu opioid receptors, whether of recombinant or natural origin, may be carried out in order to determine the selectivity of the compound(s) for the kappa relative to the mu opioid receptor.
(§2) Binding affinity refers to the strength of interaction between ligand and receptor. […] These studies can be performed using cloned kappa and mu opioid receptors expressed in stable transfected cell lines or naturally occurring opioid receptors from a receptor-enriched tissue source, as noted above. In these studies, the test compounds (unlabeled ligands) are used at increasing concentrations to displace the specific binding of a radiolabeled ligand that has high affinity and selectivity for the receptor studied. Tritiated U-69,593 and DAMGO can be used as ligands in kappa and mu opioid receptor studies, respectively. Both ligands are commercially available (NEN-Dupont). DAMGO is an acronym for [D-Ala^2, MePhe^4, Gly-ol^5]-enkephalin. The affinity of the radioligands is defined by the concentration of radioligand that results in half-maximal specific binding (KD) in saturation studies. The affinity of the test compound (unlabeled or cold ligand) is determined in competition binding studies by calculating the inhibitory constant (Ki) according to the following formula:
(§3) where IC50=Concentration of the cold ligand that inhibits 50% of the specific binding of the radioligand
(§4) F=free radioligand concentration
(§5) KD=affinity of the radioligand determined in saturation studies.
(§6) When performing these assays under specific conditions with relatively low concentrations of receptor, the calculated Ki for the test compound is a good approximation of its dissociation constant KD, which represents the concentration of ligand necessary to occupy one-half (50%) of the binding sites. […]
(§7) These binding assays employing kappa opioid receptors and mu opioid receptors are straightforward to perform and can be readily carried out with large numbers of compounds to determine whether such compounds are kappa opioid receptor-selective and have high affinity. […]

Mu Opioid Receptor = biological target: T2, Mu Opioid Receptor (Rattus norvegicus, UniProt P33535); assay: Mu opioid receptor binding, competitive displacement of bound radioligand (rat brain membranes)
T2 construct: from tissue; host or cells: rat brain membranes
Source text: as §1, §2, §3, §4, §5, §6, §7

Kappa Opioid Receptor [2] = biological target: T3, Kappa Opioid Receptor (Mus musculus, UniProt P33534); assay: Functional second messenger assay, Gi-mediated inhibition of adenylate cyclase (cAMP, mouse brain); assay type: biochemical; conditions: for EC50: Kappa Opioid Receptor Activity EC50, cAMP; for Kappa Opioid Receptor Activity Pct Max: cAMP
T3 construct: (cAMP, mouse brain); from tissue; host or cells: mouse brain

P450 3A4 [3] = biological target: T4, P450 3A4 (Homo sapiens, UniProt P08684); assay: P450 3A4/BQ inhibition; assay type: in vitro ADME
Experimental: (§8) Enzyme assays are well known in the art and CYP450 enzymes from several species have been cloned. Although these cloned enzymes readily allow a particular candidate compound, e.g., a peptide, to be screened, natural sources of CYP450 enzymes, e.g., liver microsomes, are also useful for screening, as is well known in the art. Preferred analogs have a Ki for CYP450 enzymes of about 10 micromolar (uM) or more, whereas more preferred analogs have a Ki for […] of about 100 uM or more. For the purpose of identifying useful compounds of the invention, the IC50 is a useful approximation of the Ki.

P450 3A4 [4] = biological target: T4, P450 3A4; assay: P450 3A4/BFC inhibition; assay type: in vitro ADME
Experimental: as §8

P450 2C9 = P450 2C9 (Homo sapiens, UniProt P11712); assay: P450 2C9 inhibition; assay type: in vitro ADME
Experimental: as §8

P450 1A2 = biological target: T5, P450 1A2 (Homo sapiens, UniProt P05177); assay: P450 1A2 inhibition; assay type: in vitro ADME
T5 sequence (P05177 1-516): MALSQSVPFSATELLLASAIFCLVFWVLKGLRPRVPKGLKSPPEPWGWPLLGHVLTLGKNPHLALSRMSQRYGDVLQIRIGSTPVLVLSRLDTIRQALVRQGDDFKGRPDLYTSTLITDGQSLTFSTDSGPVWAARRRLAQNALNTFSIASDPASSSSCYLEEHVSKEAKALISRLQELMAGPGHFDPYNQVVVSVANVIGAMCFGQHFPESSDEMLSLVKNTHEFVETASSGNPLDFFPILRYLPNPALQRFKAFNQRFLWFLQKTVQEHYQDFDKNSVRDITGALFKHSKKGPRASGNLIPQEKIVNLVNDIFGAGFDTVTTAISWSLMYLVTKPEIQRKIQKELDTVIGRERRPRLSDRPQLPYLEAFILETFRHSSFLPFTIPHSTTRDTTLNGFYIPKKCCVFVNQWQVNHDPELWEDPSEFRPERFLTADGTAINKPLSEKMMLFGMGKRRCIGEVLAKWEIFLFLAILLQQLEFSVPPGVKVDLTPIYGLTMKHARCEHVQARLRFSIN
Experimental: as §8

cytochrome P450 enzymes = assay: Cytochrome P450 enzyme activities; assay type: in vitro ADME; conditions: summary of Table 4
Experimental: as §8

In the case of `CCCC[C@@H](NC(=O)[C@@H](Cc1ccccc1)NC(=O)[C@H](N)Cc1ccccc1)C(=O)N[C@H](CCCNC(=N)N)C(=O)NCc1cc[n+]([O-])cc1` [Peptide No. 1, H-D-Phe-D-Phe-D-Nle-D-Arg-NH-4-picolyl-N-oxide] (H-[dF][dF][dNle][dR]-X1), the IC50 (Kappa Opioid Receptor [1]; Mean) is reported as ~6.3 nM and 6.3 nM, the IC50 (Kappa Opioid Receptor [1]; individual samples) is reported as 2.6 nM and 9.4 nM and 4.2 nM and the “Kappa Opioid Receptor Binding Pct Max” value (Kappa Opioid Receptor [1]; Mean) is reported as 109.4 Pct. The “Kappa Opioid Receptor Binding Pct Max” value (Kappa Opioid Receptor [1]; individual samples, listed as Peptide1) was 105.2 Pct and 117.3 Pct and 105.6 Pct, the “Mu Opioid Receptor Binding IC50” value (Mu Opioid Receptor; rat brain) was “too high to determined” and the “maximal binding inhibition at MOR” value (Mu Opioid Receptor; rat brain membranes) was 15.5%. For the same compound, the “Mu Opioid Receptor Binding Pct Max” value (Mu Opioid Receptor; rat brain, Sample 1) was 15.5 Pct, the “Mu Opioid Receptor Binding IC50” value (Mu Opioid Receptor; rat brain, listed as Peptide1) was “No Fit” and the EC50 (Kappa Opioid Receptor [2]; Mean) was 0.42 nM. The EC50 (Kappa Opioid Receptor [2]; individual samples) was 0.3 nM and 0.57 nM, the “Kappa Opioid Receptor Activity Pct Max” value (Kappa Opioid Receptor [2]; Mean) was 101.43 Pct and the “Kappa Opioid Receptor Activity Pct Max” value (Kappa Opioid Receptor [2]; individual samples, listed as Peptide 1) was 92.46 Pct and 110.41 Pct. The “P450 3A4/BQ Inhibition Pct Max” value (P450 3A4 [3]; Mean) was 18 Pct, the “P450 3A4/BQ Inhibition IC50” value (P450 3A4 [3]; individual samples) was “No Fit” and the “P450 3A4/BQ Inhibition Pct Max” value (P450 3A4 [3]; individual samples) was 15 Pct and 21 Pct. The “P450 3A4/BFC Inhibition Pct Max” value (P450 3A4 [4]; Mean) was 26 Pct, the “P450 3A4/BFC Inhibition IC50” value (P450 3A4 [4]; individual samples) was “No Fit” and the “P450 3A4/BFC Inhibition Pct Max” value (P450 3A4 [4]; individual samples) was 22 Pct and 17 Pct and 40 Pct. The IC50 (P450 2C9) was over 10000 nM, the “P450 2C9 Inhibition Pct Max” value (P450 2C9; Mean) was 26 Pct and the “P450 2C9 Inhibition Pct Max” value (P450 2C9; individual samples) was 21 Pct and 31 Pct. The “P450 1A2 Inhibition Pct Max” value (P450 1A2; Mean) was 13 Pct, the “P450 1A2 Inhibition IC50” value (P450 1A2; individual samples) was “No Fit” and the “P450 1A2 Inhibition Pct Max” value (P450 1A2; individual samples) was 15 Pct and 10 Pct. The “inhibitory activity on several cytochrome P450 enzyme activities” value (cytochrome P450 enzymes) was “absence of significant inhibitory activity”.
